Patent US12611405B2, “Agent that increases the expression of the BCL2-associated agonist of cell death for the treatment of cancer” (LDN Pharma Limited, priority 2017, dated 2026)

Legend:
Format in all cases: cell-based
MCF-7 cells = test: 6BN given concomitantly with gemcitabine or oxaliplatin, cell number and viability by trypan blue dye exclusion; settings: 10 uM 6BN concomitantly with gemcitabine (0.5 uM) or oxaliplatin (0.5 uM), 48 h
Procedure: The effect of combining 6BN with the chemotherapeutic agents gemcitabine or oxaliplatin was tested by culturing MCF-7 cells with 6BN (10 nM or 10 uM) concomitantly with gemcitabine (0.5 uM) or oxaliplatin (0.5 uM). Cell number and viability was then assessed after 48 h using trypan blue dye exclusion as a means to discriminate live/dead cells.

[1] = test system: BAD expression in HCT116 colon cancer cells; test: Level of expression of BAD after 48 h culture, immunoblotting
Procedure: In order to determine the effect of 6-β-naltrexol or naltrexone on the level of expression of BAD, pAKT, p21, cyclin B1 and CDK1 HCT116 colon cancer cells were seeded onto 6-well plates at a density of 2×10^5 cell/well, and allowed to adhere overnight. Cells were then cultured in the presence of naltrexone or 6-β-naltrexol at concentrations of 10 nM or 10 μM for a further 48 h. Cells were then harvested and processed for measurements of BAD, or pAKT, p21, cyclin B1 and CDK1 using standard immunoblotting techniques.

HCT116 cells = test: Two-phase priming with 6-β-naltrexol then GEM or OXP, cell number and viability by trypan blue counting
Procedure: (§1) The impact of combining 6-β-naltrexol with other chemotherapy agents was tested by culturing cells according to a treatment schedule that involved two phases of treatment. The first phase involved priming with 10 nM 6-β-naltrexol or 10 μM 6-β-naltrexol for 48 h, before treatment with another drug for a further 48 h. A549 and HCT116 cells were seeded into 6-well plates at a density of 2×10^5 cells/well and left to adhere overnight. Media was removed after 48 h, and cells were rinsed gently with drug-free medium. Fresh culture medium that contained gemcitabine (GEM) or oxaliplatin (OXP) was then added to the cells. The concentrations of the chemotherapy agents used were approximately ¼ IC50, as established previously [Liu W M, Fowler D W, Smith P, Dalgleish A G. Pre-treatment with chemotherapy can enhance the antigenicity and immunogenicity of tumours by promoting adaptive immune responses. Br J Cancer. 2010 Jan. 5; 102(1):115-23. doi: 10.1038/sj.bjc.6605465.]. Cells were then left for a further 48 h before assessment of cell number of viability by cell counting using trypan blue dye as a way of discriminating live and dead cells. Cytostasis was indicated by a reduction in cell number and no associated reduction in cell viability.

A549 cells = test: as above
Procedure: as §1

[2] = test system: BAD expression in breast cancer cell line MCF-7; test: BAD protein expression by western blotting; settings: MCF-7, different concentrations of 6BN (FIG. 3)
[3] = 6-β-naltrexol priming 48 h in an amount raising BAD by at least 10%, then GEM or OXP at approx. ¼ IC50 for 48 h

Compound | effect on cell viability of the combination with chemotherapy (MCF-7 cells) | effect on the level of expression of BAD ([1]; 10 nM) | increase in the level of expression of BAD ([1]; 10 μM) | cytotoxicity of 6-β-naltrexol alone (HCT116 cells; 10 nM or 10 μM 6BN, no chemotherapeutic agent (FIG. 2d)) | cytotoxic effect of both chemotherapeutic agents (GEM, OXP) after priming (HCT116 cells; [3]) | cytotoxicity of 6-β-naltrexol alone (A549 cells; 10 nM or 10 μM 6BN, no chemotherapeutic agent (FIG. 2c)) | cytotoxic effect of both chemotherapeutic agents (GEM, OXP) after priming (A549 cells; [3]) | expression of the pro-apoptotic protein BAD [2] | effect on the level of expression of BAD ([1]; 10 μM)
Oc1ccc2c3c1OC1[C@H](O)CC[C@@]4(O)[C@@H](C2)N(CC2CC2)CC[C@]314 (stereo partly drawn) [6-β-naltrexol, 17-(Cyclopropylmethyl)-4,5-epoxymorphinan-3,6 beta,14-triol] | greatest effect on cell viability | negligible effect | more than 10% | absence of any independent increase in cytotoxicity | increased | absence of any independent increase in cytotoxicity | increased | dose dependent increase | 
O=C1CC[C@@]2(O)[C@H]3Cc4ccc(O)c5c4[C@@]2(CCN3CC2CC2)[C@H]1O5 [naltrexone, reference compound] |  | negligible effect |  |  |  |  |  |  | negligible effect
